Biological target: hCA II (Homo sapiens, UniProt P00918)
Assay: stopped-flow CO2 hydrase assay, hCA II inhibition
Format: biochemical
Conditions: ratio of Ki values versus 3b

Row | fold potency decrease against hCA II when compared to 3b [fold] | fold more potent against hCA II than ferrocenyl derivative 3b [fold] | Substance
1 | 4.5 |  | [{(η^5-C5H4)–CH = N–N(H)C(O)–CH2CH2–NH–C6H4-4–SO2NH2}]FeCp [3c]
2 |  | 8 | [{(η^5-C5H4)–CH = N–N(H)C(O)–C6H4-4–SO2NH2}]Mn(CO)3 [2b]
3 |  | 8 | [{(η^5-C5H4)–CH=N–N(H)C(O)–C6H4-4–SO2NH2}]Re(CO)3 [1b]
